Experimental data: the supplement of paper PMC10331698
± gives the standard deviation of the averaged measurements.

Experiments:
Assay in all cases: level (log10 ratio to DMSO vehicle control); higher = higher biomarker level / cell amount than vehicle control
[1] = compound: CCOC(=O)CC(=O)C(F)(F)C(F)(F)F [Ethyl pentafluoropropionyl acetate] (in DMSO)
Description: (§1)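 BioMAP Diversity Plus panel of 12 human primary cell co-culture systems (3C, 4H, LPS, SAg, BT, BF4T, BE3C, CASM3C, HDF3CGF, KF3CT, MyoF, Mphg). Compounds were added 1 h before stimulation and left for 24 h (MyoF 48 h; BT 72 h for soluble read-outs or 6 d for IgG). Biomarkers were read by ELISA, cytotoxicity by SRB, PBMC viability and proliferation by Alamar Blue. Each well value was divided by the mean of 8 DMSO control wells on the same plate and log10 transformed; duplicate blinded samples were tested at 4 concentrations.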

[2] = compound: CO[Si](C)(CCC(F)(F)C(F)(F)C(F)(F)C(F)(F)C(F)(F)C(F)(F)F)OC [Dimethoxymethyl((perfluorohexyl)ethyl)silane] (in DMSO)
Description: as §1

[3] = compound: O=C(O)CCC(F)(C(F)(F)F)C(F)(F)F [4,4-bis(Trifluoromethyl)-4-fluoropropanoic acid] (in DMSO)
Description: as §1

[4] = compound: O=C(O)C(F)(F)C(F)(F)C(F)(F)C(F)(F)C(F)(F)C(F)(F)C(F)(F)C(F)(F)C(F)(F)C(F)(F)F [Perfluoroundecanoic acid] (in DMSO); conditions: 6700 nM
Description: as §1

[5] = compound: OCCC(F)(F)C(F)(F)C(F)(F)C(F)(F)F [4:2 Fluorotelomer alcohol] (in DMSO)
Description: as §1

[6] = compound: CN(C(=O)C(F)(F)C(F)(F)C(F)(F)F)[Si](C)(C)C [N-Methyl-N-trimethylsilylheptafluorobutyramide] (in DMSO)
Description: as §1

[7] = compound: O=C(O)C=C(C(F)(F)F)C(F)(F)F [3,3-Bis(trifluoromethyl)-2-propenoic acid] (in DMSO)
Description: as §1

Row | Test System | level (log10) ([1]; 6700 nM) | level (log10) ([1]; 20000 nM) | level (log10) ([1]; 60000 nM) | level (log10) ([2]; 6700 nM) | level (log10) ([2]; 20000 nM) | level (log10) ([3]; 6700 nM) | level (log10) ([3]; 20000 nM) | level (log10) ([3]; 60000 nM) | level (log10) [4] | level (log10) ([5]; 6700 nM) | level (log10) ([5]; 20000 nM) | level (log10) ([5]; 60000 nM) | level (log10) ([6]; 6700 nM) | level (log10) ([6]; 20000 nM) | level (log10) ([6]; 60000 nM) | level (log10) ([7]; 6700 nM) | level (log10) ([7]; 20000 nM) | level (log10) ([7]; 60000 nM)
1 | CASM3C:CD106/VCAM-1 | -0.01 ± 0.0085 | -0.011 ± 0.0085 | -0.01 ± 0.023 | -0.0265 ± 0.012 | -0.0155 ± 0.005 | -0.0265 ± 0.049 | -0.0185 ± 0.056 | -0.033 ± 0.0099 | -0.032 ± 0.034 | 0.0435 ± 0.023 | -0.0035 ± 0.023 | -0.0005 ± 0.042 | -0.007 ± 0.0042 | -0.027 ± 0.0057 | -0.0175 ± 0.013 | -0.152 ± 0.012 | -0.216 ± 0.021 | -0.284 ± 0.054
2 | CASM3C:CD141/Thrombomodulin | -0.005 ± 0.0071 | -0.0005 ± 0.00071 | -0.0115 ± 0.018 | -0.008 ± 0.0057 | -0.015 ± 0.021 | -0.0525 ± 0.069 | -0.032 ± 0.041 | 0.0035 ± 0.019 | -0.06 ± 0.12 | -0.018 ± 0.075 | 0.0295 ± 0.035 | 0.0295 ± 0.043 | -0.0195 ± 0.025 | -0.027 ± 0.011 | -0.011 ± 0.0042 | 0.03 ± 0.0071 | 0.0275 ± 0.0064 | 0.026 ± 0.0028
3 | CASM3C:CD142/Tissue Factor | -0.0235 ± 0.046 | -0.008 ± 0.031 | 0.0035 ± 0.012 | -0.001 ± 0.011 | -0.0075 ± 0.005 | -0.0325 ± 0.047 | -0.011 | 0.0385 ± 0.049 | -0.066 ± 0.041 | -0.014 ± 0.079 | -0.028 ± 0.0014 | 0.0225 ± 0.046 | -0.021 ± 0.016 | -0.012 ± 0.0028 | 0.0135 ± 0.026 | 0.055 ± 0.018 | -0.009 ± 0.041 | -0.0635 ± 0.06
4 | CASM3C:CXCL8/IL-8 | 0.0045 ± 0.0035 | 0 | 0.0035 ± 0.0078 | -0.004 | 0.004 ± 0.0085 | -0.0115 ± 0.012 | -0.0135 ± 0.012 | -0.0195 ± 0.005 | 0.0005 ± 0.0021 | -0.002 ± 0.0028 | 0.0035 ± 0.026 | 0.019 ± 0.031 | -0.006 | -0.006 ± 0.0028 | 0.008 ± 0.0042 | -0.0025 ± 0.0021 | -0.0045 ± 0.005 | 0.0125 ± 0.022
5 | CASM3C:CXCL9/MIG | -0.018 ± 0.03 | -0.0145 ± 0.0064 | -0.0035 ± 0.0092 | -0.012 ± 0.017 | -0.003 ± 0.013 | -0.0035 ± 0.005 | -0.0165 ± 0.00071 | 0.018 ± 0.047 | -0.027 ± 0.0099 | 0.008 ± 0.0014 | 0.0085 ± 0.029 | 0.0245 ± 0.056 | -0.0095 ± 0.005 | -0.0065 ± 0.015 | 0.008 ± 0.03 | -0.059 ± 0.051 | -0.0845 ± 0.022 | -0.0965 ± 0.087
6 | CASM3C:HLA-DR | -0.0125 ± 0.0064 | -0.0185 ± 0.015 | -0.015 ± 0.014 | -0.012 ± 0.021 | -0.0005 ± 0.0035 | -0.035 ± 0.0014 | -0.0285 ± 0.012 | 0.0035 ± 0.012 | -0.007 ± 0.017 | -0.0195 ± 0.049 | -0.022 ± 0.028 | 0.002 ± 0.037 | -0.0175 ± 0.0021 | -0.0105 ± 0.012 | 0.013 ± 0.011 | -0.121 ± 0.0028 | -0.167 ± 0.0085 | -0.181 ± 0.067
7 | CASM3C:IL-6 | -0.022 ± 0.011 | -0.021 ± 0.023 | 0.009 ± 0.057 | -0.0225 ± 0.00071 | 0.013 ± 0.051 | -0.02 ± 0.0014 | -0.0225 ± 0.005 | 0.009 ± 0.061 | 0.0025 ± 0.0092 | -0.0195 ± 0.005 | -0.023 ± 0.0099 | -0.016 ± 0.054 | -0.0165 ± 0.0035 | -0.0105 ± 0.0035 | 0.0035 ± 0.049 | -0.097 ± 0.045 | -0.148 ± 0.0071 | -0.189 ± 0.026
8 | CASM3C:LDLR | -0.0125 ± 0.019 | -0.002 ± 0.0085 | 0.0035 ± 0.013 | -0.0135 ± 0.00071 | 0.0165 ± 0.029 | -0.0085 ± 0.037 | 0.0045 ± 0.036 | 0.018 ± 0.014 | -0.0265 ± 0.016 | -0.0485 ± 0.026 | -0.034 ± 0.011 | -0.0455 ± 0.037 | -0.006 ± 0.0099 | -0.0055 ± 0.005 | 0.0255 ± 0.035 | -0.008 ± 0.011 | -0.0175 ± 0.0064 | -0.022 ± 0.016
9 | CASM3C:M-CSF | -0.0145 ± 0.00071 | -0.0175 ± 0.0064 | -0.0025 ± 0.028 | -0.012 ± 0.013 | 0.0045 ± 0.043 | -0.0145 ± 0.042 | 0.024 ± 0.048 | 0.0875 ± 0.056 | 0.019 ± 0.0085 | -0.085 ± 0.027 | -0.048 ± 0.0028 | 0.0105 ± 0.0035 | -0.011 ± 0.0028 | -0.018 ± 0.0042 | 0.0145 ± 0.036 | -0.0435 ± 0.0035 | -0.044 ± 0.02 | -0.068 ± 0.033
10 | CASM3C:PAI-I | 0.002 ± 0.0057 | 0.0055 ± 0.012 | 0.007 ± 0.0014 | -0.0125 ± 0.022 | -0.0005 ± 0.011 | 0.0075 ± 0.025 | 0.007 ± 0.013 | 0.0035 ± 0.0021 | 0.005 ± 0.0057 | -0.0085 ± 0.011 | 0.001 ± 0.017 | -0.0015 ± 0.021 | 0.0015 ± 0.021 | -0.003 ± 0.0071 | 0.0005 ± 0.0078 | -0.0115 ± 0.012 | -0.019 ± 0.0057 | -0.0145 ± 0.012
11 | CASM3C:Proliferation | -0.049 ± 0.04 | -0.014 ± 0.0085 | -0.0155 ± 0.00071 | 0.0455 ± 0.0078 | 0.041 ± 0.061 | 0.002 ± 0.013 | -0.012 ± 0.0099 | -0.003 ± 0.023 | 0.0285 ± 0.011 | 0.0185 ± 0.03 | 0.0335 ± 0.044 | 0.0185 ± 0.028 | -0.017 ± 0.03 | -0.0095 ± 0.00071 | 0.039 ± 0.033 | -0.0475 ± 0.0035 | -0.0555 ± 0.015 | -0.177 ± 0.06
12 | CASM3C:SRB | 0.0035 ± 0.0021 | 0.0015 ± 0.0035 | 0.002 ± 0.011 | -0.006 ± 0.0042 | -0.011 ± 0.0028 | -0.007 ± 0.0014 | -0.0005 ± 0.0078 | -0.0025 ± 0.0035 | 0.0025 ± 0.0035 | 0.0045 ± 0.0035 | -0.008 | 0.0015 ± 0.0092 | -0.001 ± 0.0042 | 0.0085 ± 0.012 | -0.002 ± 0.011 | 0.0145 ± 0.016 | -0.0075 ± 0.0021 | -0.027
13 | CASM3C:Serum Amyloid A | 0.0005 ± 0.0035 | -0.012 ± 0.0014 | 0.0155 ± 0.029 | -0.015 ± 0.0014 | 0.014 ± 0.041 | -0.008 ± 0.013 | 0.064 ± 0.059 | 0.159 ± 0.0057 | 0.014 ± 0.016 | -0.081 ± 0.081 | -0.0345 ± 0.023 | -0.013 ± 0.1 | -0.018 ± 0.0099 | -0.0275 ± 0.025 | 0.013 ± 0.082 | -0.013 ± 0.021 | -0.0185 ± 0.0092 | -0.005 ± 0.038
14 | HDF3CGF:CCL2/MCP-1 | -0.022 ± 0.0042 | -0.0135 ± 0.005 | 0.009 ± 0.047 | -0.026 ± 0.034 | -0.008 ± 0.054 | -0.014 ± 0.016 | -0.01 ± 0.017 | 0.005 ± 0.0042 | -0.077 ± 0.042 | -0.0305 ± 0.08 | -0.043 ± 0.027 | -0.0315 ± 0.052 | -0.032 ± 0.0085 | -0.0245 ± 0.0078 | -0.0205 ± 0.028 | -0.0775 ± 0.052 | -0.0935 ± 0.056 | -0.084 ± 0.028
15 | HDF3CGF:CD54/ICAM-1 | 0.006 ± 0.017 | 0.0055 ± 0.0092 | -0.012 ± 0.034 | -0.013 ± 0.0099 | -0.0125 ± 0.012 | 0.006 ± 0.0099 | -0.009 ± 0.041 | -0.0025 ± 0.005 | -0.0765 ± 0.00071 | -0.0095 ± 0.019 | -0.0255 ± 0.0035 | -0.0285 ± 0.005 | -0.009 ± 0.013 | -0.0085 ± 0.018 | 0.011 ± 0.023 | 0.033 ± 0.035 | 0.032 ± 0.027 | 0.0555 ± 0.021
